Consider six molecules from patent US9051273B2, “Phosphodiesterase 4 inhibitor capable of avoiding vomiting” (priority 2012, dated 2015).

Structures are written as SMILES. Some results are limits rather than exact numbers.

One data set addresses PDE4D4 (Homo sapiens, UniProt Q08499). In words: Phosphodiesterase 4 inhibitory activity test (IMAP fluorescence polarization), PDE4D4. The class given is biochemical. Conditions: Table 1. A general note: Polarisation of emitted light reports the rotation of a fluorescent probe.
The target of another data set is PDE4D5 (Homo sapiens, UniProt Q08499). In words: Phosphodiesterase 4 inhibitory activity test (IMAP fluorescence polarization), PDE4D5. Format: biochemical. Conditions: Table 1.
In data set [1] the test system is mice with scopolamine-induced cognitive deficits. Kind of data set: Morris water maze, learning and memory with scopolamine-induced cognitive deficits in mice. Format: in vivo, kunming mice. Conditions: administered 1 week, space exploration on fifth day, X ± S. The method, then:
1. The effects of the new PDE4 inhibitor III-3 on the learning and memory with scopolamine-induced cognitive deficits in mice
After being continuously administered with veh or compounds for 1 week, the behavioral tests are determined by Morris water maze. 20 minutes before test, saline is given into the blank control mice through intraperitoneal injection, while scopolamine is intraperitoneally injected to the other five groups. These mice are continuously trained for 4 days, and the space exploration experiment is performed on the fifth day for recording the latency to target quadrant, the number of crossing and retention time in the target quadrant during the test period of each mice.

A further data set relates to beagle dogs. In words: Potential vomiting effects (emesis) in beagle dogs. Format: in vivo. Conditions: observation 120 minutes. The method, then: 2. Preliminary assessing the potential vomiting effects of new PDE4 inhibitor III-3
The potential vomiting observation time is 120 minutes after the oral administration. The latency was determined by the interval time from the oral administration of the drugs to the nausea, retching, a lot of salivation and vomiting of gastric contents. The incidence of emesis was also recorded.

The mark [2] stands for this setting: scopolamine + Rolipram 0.5 mg/kg.

PDE4D4, sequence (Q08499 whole entry): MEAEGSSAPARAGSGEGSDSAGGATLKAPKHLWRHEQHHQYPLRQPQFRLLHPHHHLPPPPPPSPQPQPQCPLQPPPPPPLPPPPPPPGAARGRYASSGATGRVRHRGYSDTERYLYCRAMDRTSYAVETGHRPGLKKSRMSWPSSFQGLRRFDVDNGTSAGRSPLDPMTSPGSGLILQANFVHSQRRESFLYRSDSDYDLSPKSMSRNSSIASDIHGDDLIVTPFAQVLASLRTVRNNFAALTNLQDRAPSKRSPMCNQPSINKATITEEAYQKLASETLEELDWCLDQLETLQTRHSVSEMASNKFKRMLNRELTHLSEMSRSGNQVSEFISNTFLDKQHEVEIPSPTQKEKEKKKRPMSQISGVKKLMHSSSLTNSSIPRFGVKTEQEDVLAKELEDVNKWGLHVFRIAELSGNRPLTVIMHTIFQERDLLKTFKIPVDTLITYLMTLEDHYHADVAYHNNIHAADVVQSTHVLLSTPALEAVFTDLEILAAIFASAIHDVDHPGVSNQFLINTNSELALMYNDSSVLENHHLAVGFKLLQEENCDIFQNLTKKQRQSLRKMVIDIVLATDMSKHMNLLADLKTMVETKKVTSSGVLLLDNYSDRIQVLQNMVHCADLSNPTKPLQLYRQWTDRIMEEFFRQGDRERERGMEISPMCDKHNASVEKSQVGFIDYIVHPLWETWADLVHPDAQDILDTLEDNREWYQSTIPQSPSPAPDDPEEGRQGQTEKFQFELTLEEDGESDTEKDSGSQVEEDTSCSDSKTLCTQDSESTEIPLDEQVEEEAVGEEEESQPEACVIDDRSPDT
PDE4D5, sequence (Q08499 1-745 isoform Q08499-6): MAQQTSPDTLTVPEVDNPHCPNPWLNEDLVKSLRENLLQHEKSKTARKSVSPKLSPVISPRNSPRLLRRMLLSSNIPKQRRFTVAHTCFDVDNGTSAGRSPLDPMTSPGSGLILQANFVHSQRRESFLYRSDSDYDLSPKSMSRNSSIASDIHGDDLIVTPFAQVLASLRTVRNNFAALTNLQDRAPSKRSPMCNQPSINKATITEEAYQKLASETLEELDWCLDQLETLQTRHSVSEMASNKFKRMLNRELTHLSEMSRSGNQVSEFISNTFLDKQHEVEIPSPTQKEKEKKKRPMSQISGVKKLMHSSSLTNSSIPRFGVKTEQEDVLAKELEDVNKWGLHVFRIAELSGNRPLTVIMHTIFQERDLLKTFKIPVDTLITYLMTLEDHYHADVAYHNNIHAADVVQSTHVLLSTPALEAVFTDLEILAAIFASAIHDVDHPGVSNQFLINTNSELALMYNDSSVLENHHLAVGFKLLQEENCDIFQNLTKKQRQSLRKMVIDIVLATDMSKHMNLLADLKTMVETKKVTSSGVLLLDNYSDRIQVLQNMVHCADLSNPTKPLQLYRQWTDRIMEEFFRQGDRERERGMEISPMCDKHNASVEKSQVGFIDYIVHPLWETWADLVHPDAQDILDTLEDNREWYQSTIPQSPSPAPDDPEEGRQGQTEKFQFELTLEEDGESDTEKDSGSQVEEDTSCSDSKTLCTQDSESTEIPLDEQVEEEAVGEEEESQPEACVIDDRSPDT
Excerpt for PDE4D4: (§1) Phosphodiesterase 4 inhibitory activity test utilizes IMAP technology, which is called immobilized metal ion affinity-based fluorescence polarization and provide a stable and accurate approach for determining the inhibitory potential of compounds.
Excerpt for PDE4D5: as §1

As to `COc1ccc(CN2CCN(c3ccccc3OC)CC2)cc1-c1cccc(Cl)c1` [II-1], the figures for the IC50 against PDE4D4 and at PDE4D5 were 115 µM and 83.7 µM, respectively.
Taken in the same sequence, the figures for `COc1ccc(CN2CCN(c3ccccc3Cl)CC2)cc1-c1cccc(Cl)c1` [II-2] were 141 µM and 50.9 µM.
The matching figures for `COc1ccc(Cn2ncc(Cl)c(Cl)c2=O)cc1-c1cccc(Cl)c1` [III-1]: 22.4 µM and 8.32 µM.
Taken in the same sequence, the figures for `COc1ccc(Cn2nc(N3CCN(c4ccccc4Cl)CC3)ccc2=O)cc1-c1cccc(Cl)c1` [III-2] were 137 µM and 110 µM.
For the molecule `COc1ccccc1OCCNc1ccc(=O)n(Cc2ccc(OC)c(-c3cccc(Cl)c3)c2)n1` [III-3], in data set [1] (scopolamine + III-3 0.2 mg/kg), the “Latency to target quadrant (t/s)” value is 9.96 ± 2.32 s, the “Retention time in target quadrant time (t/s)” value worked out at 42.78 ± 4.56 s and the “The number of crossing target quadrant” value turned out to be 6.67 ± 1.29. Besides, in the data set on beagle dogs (1.0 mg/kg oral), the Incidence of emesis was 0/3 and the “Latency period (min) of emesis” value is reported as more than 120 min. In addition, the IC50 on PDE4D4 was found to be 7.82 µM. This molecule also had an IC50 against PDE4D5 of 8.48 µM.
For the molecule `COc1ccc(C2CNC(=O)C2)cc1OC1CCCC1` (centres unmarked) [Rolipram, reference compound], in data set [1] (setting [2]), the “Latency to target quadrant (t/s)” value was determined as 16.09 ± 3.29 s, the “Retention time in target quadrant time (t/s)” value is 38.34 ± 3.65 s and the “The number of crossing target quadrant” value was 6.89 ± 0.59. Further, in the data set with beagle dogs (0.5 mg/kg oral gavage), the Incidence of emesis is listed as 6/6 and the “Latency period (min) of emesis” value is listed as 10.67 ± 2.68 min.

The term IC50 denotes the concentration at which inhibition is half-maximal. Low readings indicate inhibition by little substance, high ones a need for much substance.
